Experimental data reported in ChEMBL document CHEMBL5357054, “Expanding the Chemical Diversity of Grisechelins via Heterologous Expression” (2024).
Converted amounts (≈) assume the structure as drawn. The source made the active and inactive calls. The rule behind the calls is not given here.

Key:
[1] = test system: Mycobacterium tuberculosis; experiment: Antibacterial activity against autoluminescent Mycobacterium tuberculosis H37Ra by 7H9 broth based assay; type: functional
Acinetobacter baumannii = experiment: Antibacterial activity against Acinetobacter baumannii ATCC 19606 incubated for 24 hrs by broth microdilution method; type: functional, organism-based
Staphylococcus aureus = experiment: Antibacterial activity against methicillin resistant Staphylococcus aureus ATCC 43300 incubated for 24 hrs by broth microdilution method; type: functional, organism-based

SMILES	Activity [1]	Activity (Acinetobacter baumannii)	Activity (Staphylococcus aureus)	MIC [1] [µg/mL]
CC(=O)/C=C/c1csc(-c2nc3ccc(Cl)cc3c(Cl)c2O)n1	inactive	inactive	inactive	–
O=C(O)c1nc2ccc(Cl)cc2cc1O	inactive	inactive	inactive	–
NC(=O)c1csc(-c2csc(-c3nc4ccccc4c(Cl)c3O)n2)n1	inactive	inactive	inactive	–
OCc1csc(-c2nc3ccccc3cc2O)n1	inactive	inactive	inactive	–
OCc1csc(-c2nc3ccc(Cl)cc3c(Cl)c2O)n1	–	–	–	8 (≈ 24.5 µM)
NC(=O)c1nc2ccc(Cl)cc2c(Cl)c1O	inactive	inactive	inactive	–
NC(=O)[C@@H]1CSC(c2csc(-c3nc4ccc(Cl)cc4cc3O)n2)=N1	inactive	inactive	inactive	–
O=C(OCc1csc(-c2nc3ccc(Cl)cc3c(Cl)c2O)n1)c1ccccc1O	inactive	inactive	inactive	–
OCc1csc(-c2nc3ccccc3c(Cl)c2O)n1	inactive	inactive	inactive	–
NC(=O)[C@@H]1CSC(c2csc(-c3nc4ccccc4cc3O)n2)=N1	inactive	inactive	inactive	–
